Columns and labels:
[1] = test system: rBMEC (primary cultured rat brain microvascular endothelial cells); assay: Transporter inhibition assays: Rb1 uptake into rBMEC in presence of inhibitors; assay type: in vitro ADME; conditions: Rb1 60 μg/mL, 37°C; for effect on Rb1 uptake into rBMEC versus control: 120 min
Description: In the present study, the uptake at 120 min was selected to measure the effect of test agents on the transport characteristics of Rb1. Rb1 concentration was set to be 60 μg/mL. The rBMEC was seeded out in 6-well plates, allowed to adhere, and grown to confluency. To study the transport mechanisms, uptake of Rb1 was carried out in the presence of a metabolic energy inhibitor and a series of established transporter inhibitors. The impact of these inhibitors on Rb1 uptake by rBMEC was assessed at the steady state at 37°C. NaN3 (500 μM), probenecid (100 μM), CsA (25, 50, and 100 μM), or phloretin (5 μM) was added to inhibit different transport systems. In the inhibition study, to further assess the effect of phloretin on Rb1 uptake into rBMEC, the cells were incubated at 37°C at a set time (5, 15, 30, 60, and 120 min). Uptake was measured after incubation with Rb1 in the presence of phloretin at the concentration of 5 μM.
HPLC–MS/MS was composed by a Shimadzu LC-20A chromatographic system and an API 4000 mass spectrometer equipped with electrospray ionization (ESI) source system. MS/MS detection was performed on an API 4000 mass spectrometer using multiple reaction monitoring (MRM) mode by monitoring the fragmentation of m/z 1107.6 → 179.0 for Rb1 and m/z 779.4 → 345.2 for digoxin (IS). Chromatographic separations were carried out on a Shim-pack XD-ODS column (2.0 mm × 30 mm, 2.2 μm) with a Shim-pack GVD-ODS (2.0 mm × 5 mm, 4.6 μm) guard column (Shimadzu, Japan) at a flow rate of 0.28 mL/min using 10 mM acetic acid in water (phase A) and methanol (phase B) as mobile phase. A linear step gradient elution was performed as followed: phase B was increased from 45 to 90% within the first 3 min, and decreased to 45% within the next 3 min (total gradient time: 6 min). A 10 μL sample was injected into the system with the auto-sample conditioned at 4°C and column temperature maintained at 40°C.
The biological samples (100 μL) were placed in a 1.5 mL Eppendorf tube, and mixed with 10 μL IS solution (500 ng/mL) for 3 min by vortexing. The mixture was extracted with methanol (0.9 mL) by vortexing, and then centrifuged at 14,000 rpm for 5 min. The supernatant (0.8 mL) was transferred to a new 1.5 mL Eppendorf tube and evaporated to dryness under vacuum. The dried residue was reconstituted with 100 μL methanol, vortex-mixed for 30 s, and centrifuged at 14,000 rpm for 5 min. Finally, 10 μL of the supernatant liquid was immediately subjected to HPLC–MS/MS analysis. The system control and data analysis were performed by AB Sciex Analyst software (the software version: Analyst 1.5.1).

rBMEC = assay: Cell viability assessment, CCK-8 assay; conditions: 37°C, 4 h
Description: The cytotoxic effects of the test agents used in this study were assessed on confluent monolayers of cells in 96-well plates using a CCK-8 assay. Cells were subjected to a 200 μL/well of each drug in Hanks’ solution at the concentrations used in the experiments, followed by incubation for another 4 h. Then, 10 μL Cell Counting Kit-8 (CCK8, Dojindo) solution was added to each well. Plates were incubated for additional 4 h. Absorbance readings at 450 nm were obtained using a spectrophotometer (Thermo Varioskan) and expressed as percentage viability compared to control untreated cells.

GLUT1 [2] = biological target: GLUT1; parameters: method as in Burant and Bell, 1992; conditions: ref Burant and Bell, 1992; read-out: Ki of GLUT1 for glucose; cited from earlier work
GLUT1 [3] = biological target: T1, GLUT1 (Rattus norvegicus, UniProt P11167); assay: Competitive inhibition of Rb1 uptake by rBMEC by D-glucose (Lineweaver-Burk plot); assay type: in vitro ADME; conditions: 100 mM D-glucose, Rb1 30-960 μg/mL, 37°C, 120 min
T1 construct: GLUT1, as the major GLUT isoform expressed in brain endothelial cells; endogenous in cells; host or cells: primary cultured rat brain microvascular endothelial cells (rBMEC)
T1 sequence (P11167 1-492): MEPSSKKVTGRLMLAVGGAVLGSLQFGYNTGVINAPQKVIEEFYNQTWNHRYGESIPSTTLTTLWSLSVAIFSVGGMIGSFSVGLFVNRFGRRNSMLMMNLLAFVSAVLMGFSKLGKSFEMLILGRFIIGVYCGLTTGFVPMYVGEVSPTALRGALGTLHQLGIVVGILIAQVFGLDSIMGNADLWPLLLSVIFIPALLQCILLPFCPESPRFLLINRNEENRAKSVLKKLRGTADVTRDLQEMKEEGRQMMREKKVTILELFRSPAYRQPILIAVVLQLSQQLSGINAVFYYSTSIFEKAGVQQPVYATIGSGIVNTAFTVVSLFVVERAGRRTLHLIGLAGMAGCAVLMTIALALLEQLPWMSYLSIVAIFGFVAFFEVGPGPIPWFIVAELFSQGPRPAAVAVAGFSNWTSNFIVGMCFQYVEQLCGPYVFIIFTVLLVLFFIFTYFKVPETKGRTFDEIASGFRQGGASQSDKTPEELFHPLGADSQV
Description: In the competition experiments, Rb1 uptake (30–960 μg/mL) was measured in the absence and presence of D-glucose (100 mM) which is a principal physiological substrate of GLUT1. Briefly, cells were grown in 6-well plates for 7 days before their medium was removed, pre-incubated with warm glucose-free Hanks’ solution for 30 min. Subsequently, samples and controls were treated as described transport studies, but this time in addition with 100 mM D-glucose to the various concentrations of Rb1 in glucose-free Hanks’ solution at 37°C for 120 min.

GLUT1 [4] = assay: Western blot, GLUT1 expression in normal rat brain; assay type: in vivo; conditions: phloretin 5 mg/kg i.v. for 1 week, P < 0.05
Description: Rats were randomly divided into two groups in 36 of each group. One group served as the control and another group were treated with phloretin. Dose of phloretin was set to be 5 mg/kg. Rb1 (10 mg/kg, i.v.) was administered to the experimental rats after i.v. administration of phloretin or saline for consecutive 1 week. Six rats from each group were selected and the blood samples were collected into heparinized Eppendorf tubes via the abdominal aorta at 0.5, 2, and 6 h after Rb1 administration. Then, brain samples were immediately collected. The plasma samples were obtained by centrifuging at 1000 × g for 10 min. Plasma and brain samples were frozen at -80°C until analysis. Total proteins were extracted and 60 μg of each protein was separated on SDS-10% polyacrylamide gels. Proteins on the gel were transferred to PVDF membrane (Merck-Millipore). Blots were blocked with 5% skimmed milk dissolved in PBS containing 0.1% Tween-20 (PBST) for 2 h at room temperature. The membrane was incubated with primary antibody at 4°C overnight. […] After washing, the chemiluminescence signal was monitored using the ChemiDoc XRS+ system (Bio-Rad, Hercules, CA, United States). Densitometric semi-quantitative analysis of protein bands was carried out using Image J.

GLUT1 [5] = assay: Western blot, GLUT1 expression in rBMEC; assay type: cell-based, rat; conditions: phloretin 5 μM together with Rb1 60 μg/mL; at 30, 60 and 120 min
Description: (§1) Total proteins were extracted and 60 μg of each protein was separated on SDS-10% polyacrylamide gels. Proteins on the gel were transferred to PVDF membrane (Merck-Millipore). Blots were blocked with 5% skimmed milk dissolved in PBS containing 0.1% Tween-20 (PBST) for 2 h at room temperature. The membrane was incubated with primary antibody at 4°C overnight. Washing of the blots with PBST three times was followed by incubation with horseradish peroxidase-conjugated secondary antibody for 2 h at room temperature. After washing, the chemiluminescence signal was monitored using the ChemiDoc XRS+ system (Bio-Rad, Hercules, CA, United States). Densitometric semi-quantitative analysis of protein bands was carried out using Image J.

GLUT3 = assay: Western blot, GLUT3 expression in rBMEC; assay type: cell-based, rat; conditions: phloretin 5 μM together with Rb1 60 μg/mL
Description: as §1

[6] = parameters: method as in Li et al., 2007; conditions: rats, TPNS injection 10.0 mg/kg intravenous; ref Li et al., 2007; cited from earlier work

Compound: CCCN(CCC)S(=O)(=O)c1ccc(C(=O)O)cc1 [probenecid]
- effect on Rb1 uptake into rBMEC versus control ([1]; probenecid 100 μM): no statistically significant differences
- viability of rBMEC versus control (CCK-8) (rBMEC; probenecid 100 μM): no statistically significant differences

Compound: OC[C@H]1OC(O)[C@H](O)[C@@H](O)[C@@H]1O (stereo partly drawn) [D-glucose]
- Ki (GLUT1 [2]): ~1000 µM
- Ki (GLUT1 [3]): 885 µM

Compound: O=C(CCc1ccc(O)cc1)c1c(O)cc(O)cc1O [phloretin]
- expression level of GLUT1 in brain versus untreated normal rats (GLUT1 [4]): significantly decreased
- expression level of GLUT1 in rBMEC versus control (GLUT1 [5]): significantly lower
- effect on cell-to-medium (C/M) ratio of Rb1, time course ([1]; phloretin 5 μM, 5-120 min, especially from min 30 to 120): significantly decreased
- effect on Rb1 uptake into rBMEC versus control ([1]; phloretin 5 μM, P < 0.01): significant decrease
- expression level of GLUT3 in rBMEC versus control (GLUT3): no significant difference
- viability of rBMEC versus control (CCK-8) (rBMEC; phloretin 5 μM): no statistically significant differences

Compound: C=C1[C@@H](C)[C@H]2[C@H](Cc3ccccc3)NC(=O)[C@]23OC(=O)/C=C/C(=O)CCC[C@@H](C)C/C=C/[C@H]3[C@@H]1O [CsA, cytochalasin A]
- effect on Rb1 uptake into rBMEC versus control ([1]; CsA 25, 50 and 100 μM): no statistically significant differences
- viability of rBMEC versus control (CCK-8) (rBMEC; CsA 25, 50 and 100 μM): no statistically significant differences

Compound: CC(C)=CCC[C@](C)(O[C@@H]1O[C@H](CO)[C@@H](O)[C@H](O)[C@H]1O)[C@H]1CC[C@]2(C)[C@@H]1[C@H](O)C[C@@H]1[C@@]3(C)CC[C@H](O)C(C)(C)[C@@H]3[C@@H](O[C@@H]3O[C@H](CO)[C@@H](O)[C@H](O)[C@H]3O)C[C@]12C [Rg1, ginsenoside Rg1]
- duration in brain tissue [6]: ~1 h
- largest content in brain tissue [6]: about 0.2 μg/g

Compound: [N-]=[N+]=[N-].[Na+] [NaN3, sodium azide]
- effect on Rb1 uptake into rBMEC versus control ([1]; NaN3 500 μM): no statistically significant differences
- viability of rBMEC versus control (CCK-8) (rBMEC; NaN3 500 μM): no statistically significant differences

Reference: PMC5917093, “Brain Transport Profiles of Ginsenoside Rb1 by Glucose Transporter 1: In Vitro and in Vivo” (Frontiers in Pharmacology, 2018)
